Test results as given in ChEMBL document CHEMBL1201862, “PubChem BioAssay data set” (2004).
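Five concentrations, 48 hours, 96-well plates. GI50 is the concentration that inhibits growth by half.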 Calls of active or inactive are those of the source. Cut-off read from the data, not from the text of the source: active = GI50 up to about 1.1 µM and inactive = higher.

Assays:
Assay in all cases: inhibition of tumour cell growth, NCI panel, 48 h
LOX IMVI = test system: LOX IMVI
U-251 = test system: U-251
OVCAR-8 = test system: OVCAR-8
MCF7 = test system: MCF7
A549 = test system: A549
HOP-62 = test system: HOP-62
K562 = test system: K562
UACC-257 = test system: UACC-257
ACHN = test system: ACHN
SR = test system: SR
DU-145 = test system: DU-145
SK-MEL-5 = test system: SK-MEL-5
IGROV-1 = test system: IGROV-1
NCI-H460 = test system: NCI-H460
SK-OV-3 = test system: SK-OV-3
Malme-3M = test system: Malme-3M
SK-MEL-28 = test system: SK-MEL-28
OVCAR-5 = test system: OVCAR-5
NCI/ADR-RES = test system: NCI/ADR-RES
786-0 = test system: 786-0
MOLT-4 = test system: MOLT-4
PC-3 = test system: PC-3
HCC 2998 = test system: HCC 2998
MDA-MB-435 = test system: MDA-MB-435
KM12 = test system: KM12
NCI-H522 = test system: NCI-H522
OVCAR-3 = test system: OVCAR-3
T47D = test system: T47D
UACC-62 = test system: UACC-62
SW-620 = test system: SW-620
HCT-116 = test system: HCT-116
HCT-15 = test system: HCT-15
HOP-92 = test system: HOP-92
OVCAR-4 = test system: OVCAR-4
CAKI-1 = test system: CAKI-1
SF-295 = test system: SF-295
NCI-H23 = test system: NCI-H23
SNB-19 = test system: SNB-19
NCI-H226 = test system: NCI-H226
SK-MEL-2 = test system: SK-MEL-2
BT-549 = test system: BT-549
SN12C = test system: SN12C
UO-31 = test system: UO-31
MDA-MB-231 = test system: MDA-MB-231
HT-29 = test system: HT-29
TK-10 = test system: TK-10
SF-539 = test system: SF-539
CCRF-CEM = test system: CCRF-CEM
EKVX = test system: EKVX
SF-268 = test system: SF-268
HL-60 = test system: HL-60
RXF 393 = test system: RXF 393
COLO 205 = test system: COLO 205
RPMI-8226 = test system: RPMI-8226
Hs-578T = test system: Hs-578T
M14 = test system: M14
SNB-75 = test system: SNB-75
A498 = test system: A498

Structure (SMILES): Nc1nc(Cl)cc(NCC2(CO)CC(=O)C2)n1
- GI50 (LOX IMVI): > 100 µM (inactive)
- GI50 (U-251): > 100 µM (inactive)
- GI50 (OVCAR-8): 65.3 µM (inactive)
- GI50 (MCF7): > 100 µM (inactive)
- GI50 (A549): > 100 µM (inactive)
- GI50 (HOP-62): > 100 µM (inactive)
- GI50 (K562): > 100 µM (inactive)
- GI50 (UACC-257): > 100 µM (inactive)
- GI50 (ACHN): > 100 µM (inactive)
- GI50 (SR): > 100 µM (inactive)
- GI50 (DU-145): > 100 µM (inactive)
- GI50 (SK-MEL-5): > 100 µM (inactive)
- GI50 (IGROV-1): > 100 µM (inactive)
- GI50 (NCI-H460): > 100 µM (inactive)
- GI50 (SK-OV-3): > 100 µM (inactive)
- GI50 (Malme-3M): > 100 µM (inactive)
- GI50 (SK-MEL-28): > 100 µM (inactive)
- GI50 (OVCAR-5): > 100 µM (inactive)
- GI50 (NCI/ADR-RES): > 100 µM (inactive)
- GI50 (786-0): > 100 µM (inactive)
- GI50 (MOLT-4): > 100 µM (inactive)
- GI50 (PC-3): > 100 µM (inactive)
- GI50 (HCC 2998): > 100 µM (inactive)
- GI50 (MDA-MB-435): > 100 µM (inactive)
- GI50 (KM12): > 100 µM (inactive)
- GI50 (NCI-H522): > 100 µM (inactive)
- GI50 (OVCAR-3): > 100 µM (inactive)
- GI50 (T47D): 21.2 µM (inactive)
- GI50 (UACC-62): 86.7 µM (inactive)
- GI50 (SW-620): > 100 µM (inactive)
- GI50 (HCT-116): > 100 µM (inactive)
- GI50 (HCT-15): > 100 µM
- GI50 (HOP-92): > 100 µM (inactive)
- GI50 (OVCAR-4): > 100 µM (inactive)
- GI50 (CAKI-1): > 100 µM (inactive)
- GI50 (SF-295): > 100 µM (inactive)
- GI50 (NCI-H23): > 100 µM (inactive)
- GI50 (SNB-19): > 100 µM (inactive)
- GI50 (NCI-H226): > 100 µM (inactive)
- GI50 (SK-MEL-2): > 100 µM (inactive)
- GI50 (BT-549): > 100 µM (inactive)
- GI50 (SN12C): > 100 µM (inactive)
- GI50 (UO-31): > 100 µM (inactive)
- GI50 (MDA-MB-231): > 100 µM (inactive)
- GI50 (HT-29): > 100 µM (inactive)
- GI50 (TK-10): > 100 µM (inactive)
- GI50 (SF-539): > 100 µM (inactive)
- GI50 (CCRF-CEM): > 100 µM (inactive)
- GI50 (EKVX): 98.6 µM (inactive)
- GI50 (SF-268): > 100 µM (inactive)
- GI50 (HL-60): > 100 µM (inactive)
- GI50 (RXF 393): > 100 µM (inactive)
- GI50 (COLO 205): > 100 µM (inactive)
- GI50 (RPMI-8226): > 100 µM (inactive)
- GI50 (Hs-578T): > 100 µM (inactive)

Structure (SMILES): COc1ccc(CNc2nc(NCc3ccc(OC)cc3)nc(N3CCOCC3)n2)cc1
- GI50 (U-251): 4.43 µM (inactive)
- GI50 (OVCAR-8): 6.81 µM (inactive)
- GI50 (MCF7): 4.15 µM (inactive)
- GI50 (A549): 7.13 µM (inactive)
- GI50 (HOP-62): 7.11 µM (inactive)
- GI50 (K562): 4.55 µM (inactive)
- GI50 (UACC-257): 5.22 µM (inactive)
- GI50 (ACHN): 5.62 µM (inactive)
- GI50 (SR): 2.79 µM (inactive)
- GI50 (DU-145): 15.1 µM (inactive)
- GI50 (SK-MEL-5): 5.41 µM (inactive)
- GI50 (IGROV-1): 7.91 µM (inactive)
- GI50 (NCI-H460): 4.23 µM (inactive)
- GI50 (SK-OV-3): 8.83 µM (inactive)
- GI50 (Malme-3M): 1.03 µM (active)
- GI50 (SK-MEL-28): 40.2 µM (inactive)
- GI50 (OVCAR-5): 4.26 µM (inactive)
- GI50 (NCI/ADR-RES): 2.84 µM (inactive)
- GI50 (786-0): 5.25 µM (inactive)
- GI50 (MOLT-4): 2.88 µM (inactive)
- GI50 (PC-3): 4.05 µM (inactive)
- GI50 (MDA-MB-435): 2.02 µM (inactive)
- GI50 (KM12): 2.34 µM (inactive)
- GI50 (NCI-H522): 3.95 µM (inactive)
- GI50 (OVCAR-3): 2.44 µM (inactive)
- GI50 (T47D): 9.84 µM (inactive)
- GI50 (UACC-62): 3.58 µM (inactive)
- GI50 (M14): 6.35 µM (inactive)
- GI50 (SW-620): 4.25 µM (inactive)
- GI50 (HCT-116): 4.49 µM (inactive)
- GI50 (HCT-15): 2.29 µM
- GI50 (HOP-92): 22.8 µM (inactive)
- GI50 (OVCAR-4): 15.5 µM (inactive)
- GI50 (CAKI-1): 2.71 µM (inactive)
- GI50 (SF-295): 2.77 µM (inactive)
- GI50 (NCI-H23): 3.91 µM (inactive)
- GI50 (SNB-19): 6.31 µM (inactive)
- GI50 (NCI-H226): 19.2 µM (inactive)
- GI50 (SK-MEL-2): > 100 µM (inactive)
- GI50 (BT-549): 19.1 µM (inactive)
- GI50 (SN12C): 5.37 µM (inactive)
- GI50 (UO-31): 62.8 µM (inactive)
- GI50 (MDA-MB-231): 6.12 µM (inactive)
- GI50 (HT-29): 2.79 µM (inactive)
- GI50 (SNB-75): 5.51 µM (inactive)
- GI50 (TK-10): 3.4 µM (inactive)
- GI50 (SF-539): 4.27 µM (inactive)
- GI50 (EKVX): 37.4 µM (inactive)
- GI50 (HL-60): 2.74 µM (inactive)
- GI50 (RXF 393): > 100 µM (inactive)
- GI50 (A498): 11 µM (inactive)
- GI50 (COLO 205): 3.91 µM (inactive)
- GI50 (RPMI-8226): 1.69 µM (inactive)
- GI50 (Hs-578T): 4.23 µM (inactive)

Structure (SMILES): CN(C)c1ccc(/C=N\NC(=O)CSCC(=O)N/N=C/c2ccc(N(C)C)cc2)cc1
- GI50 (LOX IMVI): 33.2 µM (inactive)
- GI50 (U-251): 25.9 µM (inactive)
- GI50 (OVCAR-8): 53.7 µM (inactive)
- GI50 (MCF7): 40.5 µM (inactive)
- GI50 (A549): 71.9 µM (inactive)
- GI50 (HOP-62): 62.8 µM (inactive)
- GI50 (K562): 52.6 µM (inactive)
- GI50 (UACC-257): > 100 µM (inactive)
- GI50 (ACHN): 43.4 µM (inactive)
- GI50 (SR): 73.8 µM (inactive)
- GI50 (DU-145): 51.5 µM (inactive)
- GI50 (SK-MEL-5): 30 µM (inactive)
- GI50 (IGROV-1): 19.4 µM (inactive)
- GI50 (NCI-H460): 33.2 µM (inactive)
- GI50 (SK-OV-3): > 100 µM (inactive)
- GI50 (Malme-3M): > 100 µM (inactive)
- GI50 (SK-MEL-28): 63.8 µM (inactive)
- GI50 (OVCAR-5): 60.5 µM (inactive)
- GI50 (NCI/ADR-RES): 36 µM (inactive)
- GI50 (786-0): 55.1 µM (inactive)
- GI50 (MOLT-4): 36.6 µM (inactive)
- GI50 (PC-3): 45.2 µM (inactive)
- GI50 (MDA-MB-435): 76.6 µM (inactive)
- GI50 (KM12): 41.2 µM (inactive)
- GI50 (NCI-H522): 27.6 µM (inactive)
- GI50 (OVCAR-3): 68.9 µM (inactive)
- GI50 (T47D): 23.8 µM (inactive)
- GI50 (UACC-62): 35.1 µM (inactive)
- GI50 (M14): 33.9 µM (inactive)
- GI50 (SW-620): > 100 µM (inactive)
- GI50 (HCT-116): 46.9 µM (inactive)
- GI50 (HCT-15): 16.4 µM
- GI50 (HOP-92): > 100 µM (inactive)
- GI50 (OVCAR-4): 43.9 µM (inactive)
- GI50 (CAKI-1): 64.1 µM (inactive)
- GI50 (SF-295): 31.1 µM (inactive)
- GI50 (NCI-H23): 49.9 µM (inactive)
- GI50 (SNB-19): > 100 µM (inactive)
- GI50 (NCI-H226): 34.2 µM (inactive)
- GI50 (SK-MEL-2): 29.9 µM (inactive)
- GI50 (BT-549): 23.8 µM (inactive)
- GI50 (SN12C): 31.2 µM (inactive)
- GI50 (UO-31): 30.8 µM (inactive)
- GI50 (MDA-MB-231): 13.7 µM (inactive)
- GI50 (HT-29): 78.5 µM (inactive)
- GI50 (SNB-75): 56 µM (inactive)
- GI50 (TK-10): > 100 µM (inactive)
- GI50 (SF-539): 37.3 µM (inactive)
- GI50 (CCRF-CEM): 60.5 µM (inactive)
- GI50 (EKVX): 44.5 µM (inactive)
- GI50 (SF-268): > 100 µM (inactive)
- GI50 (HL-60): 70.5 µM (inactive)
- GI50 (RXF 393): 24.9 µM (inactive)
- GI50 (COLO 205): 48 µM (inactive)
- GI50 (RPMI-8226): 33.3 µM (inactive)
- GI50 (Hs-578T): 20.6 µM (inactive)
